Results reported in the supplement of paper PMC13380429.

Assays:
Settings in all cases: 72 h
Caco-2 [1] = assay: cell viability relative to DMSO; higher = less toxic
HepG2 [2] = assay: as above
U2OS [3] = assay: as above
Vero E6 [4] = assay: as above
Caco-2 [5] = assay: relative viability EC50 (midpoint between 100% and the lowest measured viability); higher = less toxic
HepG2 [6] = assay: as above
U2OS [7] = assay: as above
Vero E6 [8] = assay: as above
Caco-2 [9] = assay: drug sensitivity score (DSS) for viability; higher = more toxic; extreme values may be limits of the assay
HepG2 [10] = assay: as above
U2OS [11] = assay: as above
Vero E6 [12] = assay: as above
Calu-3 [13] = assay: cell viability relative to DMSO; higher = less toxic
Calu-3 [14] = assay: relative viability EC50 (midpoint between 100% and the lowest measured viability); higher = less toxic
Calu-3 [15] = assay: drug sensitivity score (DSS) for viability; higher = more toxic; extreme values may be limits of the assay

Compound | cell viability (Caco-2 [1]; 1 nM) [%] | cell viability (Caco-2 [1]; 10 nM) [%] | cell viability (Caco-2 [1]; 100 nM) [%] | cell viability (Caco-2 [1]; 1000 nM) [%] | cell viability (Caco-2 [1]; 10000 nM) [%] | cell viability (HepG2 [2]; 1 nM) [%] | cell viability (HepG2 [2]; 10 nM) [%] | cell viability (HepG2 [2]; 100 nM) [%] | cell viability (HepG2 [2]; 1000 nM) [%] | cell viability (HepG2 [2]; 10000 nM) [%] | cell viability (U2OS [3]; 1 nM) [%] | cell viability (U2OS [3]; 10 nM) [%] | cell viability (U2OS [3]; 100 nM) [%] | cell viability (U2OS [3]; 1000 nM) [%] | cell viability (U2OS [3]; 10000 nM) [%] | cell viability (Vero E6 [4]; 1 nM) [%] | cell viability (Vero E6 [4]; 10 nM) [%] | cell viability (Vero E6 [4]; 100 nM) [%] | cell viability (Vero E6 [4]; 1000 nM) [%] | cell viability (Vero E6 [4]; 10000 nM) [%] | relative viability EC50 (Caco-2 [5]) [µM] | relative viability EC50 (HepG2 [6]) [µM] | relative viability EC50 (U2OS [7]) [µM] | relative viability EC50 (Vero E6 [8]) [µM] | drug sensitivity score (Caco-2 [9]) | drug sensitivity score (HepG2 [10]) | drug sensitivity score (U2OS [11]) | drug sensitivity score (Vero E6 [12]) | cell viability (Calu-3 [13]; 1 nM) [%] | cell viability (Calu-3 [13]; 10 nM) [%] | cell viability (Calu-3 [13]; 100 nM) [%] | cell viability (Calu-3 [13]; 1000 nM) [%] | cell viability (Calu-3 [13]; 10000 nM) [%] | relative viability EC50 (Calu-3 [14]) [µM] | drug sensitivity score (Calu-3 [15])
CN1C(=O)CC(C)(c2ccccc2)C1=O (centres undefined) [methsuximide] | 97.5 | 102 | 99.1 | 105 | 96.7 | 98.2 | 94.4 | 101 | 100 | 104 | 97.1 | 101 | 94 | 96.6 | 91.2 | 96.1 | 97.1 | 98.7 | 96.1 | 95.2 | > 10 | > 10 | > 10 | > 10 | 0 | 0 | 0 | 0 | – | – | – | – | – | – | –
CCCCCOc1ccc(-c2cc(-c3ccc(C(=O)N[C@H]4C[C@@H](O)[C@@H](O)NC(=O)[C@@H]5[C@@H](O)[C@@H](C)CN5C(=O)[C@H]([C@H](O)CC(N)=O)NC(=O)[C@H]([C@H](O)[C@@H](O)c5ccc(O)c(OS(=O)(=O)O)c5)NC(=O)[C@@H]5C[C@@H](O)CN5C(=O)[C@H]([C@@H](C)O)NC4=O)cc3)no2)cc1 [micafungin] | – | – | – | – | – | 98.4 | 117 | 106 | 81.8 | 109 | 104 | 102 | 103 | 101 | 99.4 | 99.2 | 101 | 106 | 97.2 | 92.9 | – | > 10 | > 10 | > 10 | – | 0 | 0 | 0 | 106 | 108 | 98.3 | 99.4 | 115 | > 10 | 0
CCCCc1ccc2[nH]c(NC(=O)OC)nc2c1 [parbendazole] | 104 | 94.7 | 91.7 | 59.9 | 48.9 | 82.9 | 98.3 | 98.2 | 51.7 | 31.5 | 96.4 | 98 | 93.2 | 59.2 | 32.7 | 96 | 98.2 | 94.5 | 39 | 28.8 | 0.353 | 0.641 | 0.676 | 0.38 | 8.3 | 9.6 | 8.8 | 12 | 103 | 96.1 | 96.9 | 69.8 | 57.2 | – | 5.9
Fc1ccc(CNc2ncnc3ccc(F)cc23)cc1 [spautin-1] | 99.7 | 98.9 | 96 | 91 | 69.3 | 99.2 | 102 | 104 | 88.8 | 26.3 | 92.2 | 97.4 | 101 | 95.5 | 96.7 | 102 | 96 | 96.6 | 89.5 | 89.1 | – | 1.98 | > 10 | > 10 | 2.4 | 5.9 | 0 | 0.1 | 97.3 | 90.2 | 100 | 88.6 | 70.1 | – | 2.8
O=C1C[C@@H]2OCC=C3CN4CC[C@]56c7ccccc7N1[C@H]5[C@H]2[C@H]3C[C@H]46 [strychnine] | 97.8 | 91.1 | 83 | 85.6 | 90.2 | 113 | 93.7 | 106 | 83.1 | 96.3 | 97.2 | 101 | 96.8 | 103 | 95.8 | 102 | 98.8 | 98.3 | 87.1 | 88.7 | > 10 | > 10 | > 10 | > 10 | 3.7 | 1.7 | 0 | 0.9 | – | – | – | – | – | – | –
O=C1c2ccccc2-n2c1nc1ccccc1c2=O [tryptanthrin] | 101 | 107 | 110 | 104 | 79.7 | 88.7 | 87.5 | 90.7 | 98.2 | 40.5 | 96.5 | 97.7 | 101 | 102 | 97.7 | 104 | 99.6 | 101 | 95.7 | 96.9 | > 10 | 2.94 | > 10 | > 10 | 0.4 | 3.5 | 0 | 0 | – | – | – | – | – | – | –
